Our source for the DC50 and Dmax values is patent publication US20240165244A1 (Prelude Therapeutics Incorporated, priority 2022, published 2024).

As a reminder, the DC50 is the concentration giving 50% degradation. As a reminder, the Dmax is the greatest extent of degradation seen. A high value points to deep degradation.

One assay deals with T1, SMARCA2 (Homo sapiens, UniProt P51531).
T1 construct: SMARCA2-HiBiT knock-in Hela monoclonal cell (CS302366); host or cells: HeLa monoclonal cells with heterozygous HiBiT knock-in at the endogenous SMARCA2 locus
T1 sequence (P51531 whole entry): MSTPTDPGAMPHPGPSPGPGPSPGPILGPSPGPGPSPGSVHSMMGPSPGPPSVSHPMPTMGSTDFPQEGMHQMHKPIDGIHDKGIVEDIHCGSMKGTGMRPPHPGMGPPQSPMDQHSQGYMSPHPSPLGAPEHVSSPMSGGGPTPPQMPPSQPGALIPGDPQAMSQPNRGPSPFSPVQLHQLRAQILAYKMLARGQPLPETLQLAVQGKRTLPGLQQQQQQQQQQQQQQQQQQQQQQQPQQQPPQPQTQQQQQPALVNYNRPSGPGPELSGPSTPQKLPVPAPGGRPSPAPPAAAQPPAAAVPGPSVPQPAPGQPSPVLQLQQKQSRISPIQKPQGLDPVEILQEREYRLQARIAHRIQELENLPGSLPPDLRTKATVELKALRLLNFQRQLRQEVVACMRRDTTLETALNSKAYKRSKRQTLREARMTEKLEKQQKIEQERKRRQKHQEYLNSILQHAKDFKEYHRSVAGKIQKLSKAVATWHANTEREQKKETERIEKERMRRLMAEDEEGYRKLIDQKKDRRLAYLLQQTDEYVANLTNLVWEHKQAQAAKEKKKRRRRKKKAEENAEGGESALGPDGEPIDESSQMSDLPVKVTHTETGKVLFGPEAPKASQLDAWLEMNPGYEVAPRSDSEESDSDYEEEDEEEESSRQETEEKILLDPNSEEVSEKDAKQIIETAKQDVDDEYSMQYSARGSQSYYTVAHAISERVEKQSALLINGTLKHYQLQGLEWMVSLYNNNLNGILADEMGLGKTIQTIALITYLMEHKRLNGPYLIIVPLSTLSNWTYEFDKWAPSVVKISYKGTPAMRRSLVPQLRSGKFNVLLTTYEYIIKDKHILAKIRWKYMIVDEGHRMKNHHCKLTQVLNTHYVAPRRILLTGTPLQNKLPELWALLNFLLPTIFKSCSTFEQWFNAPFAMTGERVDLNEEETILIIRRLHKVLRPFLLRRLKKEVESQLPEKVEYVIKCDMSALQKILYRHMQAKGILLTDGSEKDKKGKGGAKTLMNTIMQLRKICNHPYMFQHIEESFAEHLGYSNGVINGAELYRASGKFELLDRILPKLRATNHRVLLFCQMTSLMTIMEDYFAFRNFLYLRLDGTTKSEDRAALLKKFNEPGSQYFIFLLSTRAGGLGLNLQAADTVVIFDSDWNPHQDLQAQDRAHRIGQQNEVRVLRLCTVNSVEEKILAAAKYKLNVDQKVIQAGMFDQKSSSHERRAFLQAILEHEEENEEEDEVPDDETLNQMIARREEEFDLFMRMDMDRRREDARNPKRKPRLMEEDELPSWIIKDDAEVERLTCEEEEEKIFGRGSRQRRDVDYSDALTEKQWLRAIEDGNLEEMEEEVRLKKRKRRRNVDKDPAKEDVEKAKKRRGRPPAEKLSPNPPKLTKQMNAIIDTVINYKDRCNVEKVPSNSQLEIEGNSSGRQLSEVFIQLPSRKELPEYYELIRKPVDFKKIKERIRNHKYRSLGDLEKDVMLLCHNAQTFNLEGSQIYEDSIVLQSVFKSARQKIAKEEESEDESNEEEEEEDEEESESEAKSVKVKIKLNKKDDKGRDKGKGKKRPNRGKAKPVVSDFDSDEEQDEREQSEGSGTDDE
The assay can be described thus: SMARCA2 HiBiT degradation assay in HeLa cells. The settings on record: 18 hours, highest concentration 10 μM. It counts as cell-based. The procedure, abridged:
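HeLa cells carrying a heterozygous C-terminal HiBiT knock-in on SMARCA2 were seeded at 2500 cells/well. They were treated with 3-fold dilution series, top concentration 10 μM, for 18 h at 37 °C. Remaining SMARCA2-HiBiT was measured by Nano-Glo HiBiT lytic luminescence after 30-60 min at RT, followed by curve fitting.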
(HiBiT is a short tag that completes a luciferase, so light tracks the accessible tagged protein.)

In another assay the target is T2, SMARCA4 (Homo sapiens, UniProt P51532).
T2 construct: SMARCA4-HiBiT knock-in Hela monoclonal cell (CS3023226); host or cells: HeLa monoclonal cells with heterozygous HiBiT knock-in at the endogenous SMARCA4 locus
T2 sequence (P51532 whole entry): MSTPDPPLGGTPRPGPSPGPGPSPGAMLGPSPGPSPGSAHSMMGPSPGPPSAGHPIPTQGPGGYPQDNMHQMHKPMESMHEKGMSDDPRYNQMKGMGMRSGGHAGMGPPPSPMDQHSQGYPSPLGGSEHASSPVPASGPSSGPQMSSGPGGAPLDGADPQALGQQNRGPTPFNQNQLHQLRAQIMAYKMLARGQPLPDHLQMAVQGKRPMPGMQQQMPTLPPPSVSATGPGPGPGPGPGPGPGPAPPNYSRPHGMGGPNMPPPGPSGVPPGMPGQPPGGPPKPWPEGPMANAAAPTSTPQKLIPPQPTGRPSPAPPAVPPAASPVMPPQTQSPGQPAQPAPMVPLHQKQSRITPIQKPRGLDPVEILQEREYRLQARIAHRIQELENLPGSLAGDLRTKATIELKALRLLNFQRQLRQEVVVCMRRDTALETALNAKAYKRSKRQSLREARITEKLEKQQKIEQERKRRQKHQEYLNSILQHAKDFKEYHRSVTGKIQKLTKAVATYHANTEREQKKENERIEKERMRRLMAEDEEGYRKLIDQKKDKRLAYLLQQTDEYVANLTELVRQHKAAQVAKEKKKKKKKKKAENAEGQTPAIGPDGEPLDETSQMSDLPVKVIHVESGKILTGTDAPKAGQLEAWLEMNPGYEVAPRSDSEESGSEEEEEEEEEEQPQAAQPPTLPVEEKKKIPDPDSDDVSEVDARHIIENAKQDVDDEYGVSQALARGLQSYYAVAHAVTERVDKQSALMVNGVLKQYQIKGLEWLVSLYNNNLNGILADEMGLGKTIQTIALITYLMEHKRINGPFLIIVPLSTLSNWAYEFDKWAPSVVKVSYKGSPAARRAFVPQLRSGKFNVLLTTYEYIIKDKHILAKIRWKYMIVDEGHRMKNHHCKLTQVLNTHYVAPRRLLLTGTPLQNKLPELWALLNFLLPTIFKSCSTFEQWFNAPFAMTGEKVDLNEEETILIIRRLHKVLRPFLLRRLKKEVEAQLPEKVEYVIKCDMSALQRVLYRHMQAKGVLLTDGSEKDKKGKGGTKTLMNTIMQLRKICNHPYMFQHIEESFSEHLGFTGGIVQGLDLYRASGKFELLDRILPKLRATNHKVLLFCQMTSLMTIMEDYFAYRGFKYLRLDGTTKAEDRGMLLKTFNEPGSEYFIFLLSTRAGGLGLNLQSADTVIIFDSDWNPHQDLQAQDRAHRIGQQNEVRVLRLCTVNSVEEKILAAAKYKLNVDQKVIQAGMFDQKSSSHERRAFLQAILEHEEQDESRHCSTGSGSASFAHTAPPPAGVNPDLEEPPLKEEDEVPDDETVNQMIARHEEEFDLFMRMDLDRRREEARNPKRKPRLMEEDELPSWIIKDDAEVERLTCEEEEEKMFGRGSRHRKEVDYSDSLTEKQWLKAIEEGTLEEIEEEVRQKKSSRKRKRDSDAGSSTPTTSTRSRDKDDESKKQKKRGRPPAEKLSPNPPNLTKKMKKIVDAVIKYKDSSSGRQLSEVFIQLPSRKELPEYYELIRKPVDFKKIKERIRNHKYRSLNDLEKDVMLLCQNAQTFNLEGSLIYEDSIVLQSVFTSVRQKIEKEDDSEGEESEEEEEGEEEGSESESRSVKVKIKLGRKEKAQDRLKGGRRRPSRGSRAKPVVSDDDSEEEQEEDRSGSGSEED
The assay can be described thus: SMARCA4 HiBiT degradation assay in HeLa cells. The settings on record: 18 hours, highest concentration 10 μM. It counts as cell-based. The procedure, abridged:
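HeLa monoclonal cells with HiBiT knocked into SMARCA4 were seeded at 2500 cells/well, dosed with compound and incubated 18 hours at 37° C. HiBiT signal reported remaining SMARCA4 protein, and values came from curve fitting.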

As for `C[C@@H]1CN(CC2CCN(c3ccc4c(c3)C(=O)N(C3CCC(=O)NC3=O)C4)CC2)C[C@H](C)N1C(=O)[C@@H]1C[C@@H]2CNc3nnc(-c4cccc(F)c4O)cc3N2C1` (stereo partly drawn) [Example 34, 3-(6-(4-(((3R,5S)-4-((6aR,8R)-2-(3-fluoro-2-hydroxyphenyl)-5,6,6a,7,8,9-hexahydropyrrolo[1′,2′:4,5]pyrazino[2,3-c]pyridazine-8-carbonyl)-3,5-dimethylpiperazin-1-yl)methyl)piperidin-1-yl)-1-oxoisoindolin-2-yl)piperidine-2,6-dione], on SMARCA2, the DC50 was < 100 nM and the Dmax was 50 to 75%. Also, at SMARCA4, the DC50 is > 1000 nM and the Dmax is < 50%.

In the case of `CN(c1ccc(CN2CCN(c3ccc4c(c3)C(=O)N(C3CCC(=O)NC3=O)C4)CC2)cn1)[C@@H]1C[C@@H]2CNc3nnc(-c4cccc(F)c4O)cc3N2C1` (stereo partly drawn) [Example 35, 3-(6-(4-((6-(((6aR,8R)-2-(3-fluoro-2-hydroxyphenyl)-5,6,6a,7,8,9-hexahydro-pyrrolo[1′,2′:4,5]pyrazino[2,3-c]pyridazin-8-yl)(methyl)amino)pyridin-3-yl)methyl)piperazin-1-yl)-1-oxoisoindolin-2-yl)piperidine-2,6-dione], on SMARCA2, the DC50 is > 1000 nM and the Dmax lay in the range of 50 to 75%. For the same compound, at SMARCA4, the DC50 is > 1000 nM and the Dmax is < 50%.

As to `Cc1cc(O[C@@H]2C[C@H]3CNc4nnc(-c5cccc(F)c5O)cc4N3C2)ccc1CN1CCN(c2ccc3c(c2)C(=O)N(C2CCC(=O)NC2=O)C3)CC1` (stereo partly drawn) [Example 36, 3-(6-(4-(4-(((6aS,8R)-2-(3-fluoro-2-hydroxyphenyl)-5,6,6a,7,8,9-hexahydro-pyrrolo[1′,2′:4,5]pyrazino[2,3-c]pyridazin-8-yl)oxy)-2-methylbenzyl)piperazin-1-yl)-1-oxoisoindolin-2-yl)piperidine-2,6-dione], at SMARCA2, the DC50 was < 100 nM and the Dmax was > 75%. For the same compound, at SMARCA4, the DC50 was < 100 nM and the Dmax is > 75%.

`Cc1cc(O[C@@H]2C[C@H]3CNc4nnc(-c5cccc(F)c5O)cc4N3C2)ccc1CN1CCC(c2ccc3c(c2)C(=O)N(C2CCC(=O)NC2=O)C3)CC1` (stereo partly drawn) [Example 37, 3-(6-(1-(4-(((6aS,8R)-2-(3-fluoro-2-hydroxyphenyl)-5,6,6a,7,8,9-hexahydropyrrolo[1′,2′:4,5]pyrazino[2,3-c]pyridazin-8-yl)oxy)-2-methylbenzyl)piperidin-4-yl)-1-oxoisoindolin-2-yl)piperidine-2,6-dione]: the DC50 on SMARCA2 and at SMARCA4 was < 100 nM each time. The Dmax on SMARCA2 and at SMARCA4 was > 75% each time.

For `Cc1cc(S[C@@H]2C[C@@H]3CNc4nnc(-c5cc(F)cc(F)c5O)cc4N3C2)ncc1CN1CCN(c2ccc3c(c2)C(=O)N([C@H]2CCC(=O)NC2=O)C3)CC1` [Example 38, (S)-3-(6-(4-((6-(((6aR,8R)-2-(3,5-difluoro-2-hydroxyphenyl)-5,6,6a,7,8,9-hexahydropyrrolo[1′,2′:4,5]pyrazino[2,3-c]pyridazin-8-yl)thio)-4-methylpyridin-3-yl)methyl)piperazin-1-yl)-1-oxoisoindolin-2-yl)piperidine-2,6-dione], the DC50 on SMARCA2 was < 100 nM; at SMARCA4, > 1000 nM. Also, the values for the Dmax on SMARCA2 and on SMARCA4 were > 75% and < 50%, respectively.

For the compound `O=C1CCC(N2Cc3ccc(N4CCC(Cn5cc(O[C@@H]6C[C@@H]7CNc8nnc(-c9cc(F)cc(F)c9O)cc8N7C6)cn5)CC4)cc3C2=O)C(=O)N1` (stereo partly drawn) [Example 39, 3-(6-(4-((4-(((6aR,8R)-2-(3,5-difluoro-2-hydroxyphenyl)-5,6,6a,7,8,9-hexahydropyrrolo[1′,2′:4,5]pyrazino[2,3-c]pyridazin-8-yl)oxy)-1H-pyrazol-1-yl)methyl)piperidin-1-yl)-1-oxoisoindolin-2-yl)piperidine-2,6-dione], the DC50 on SMARCA2 and on SMARCA4 was > 1000 nM throughout.

Consider `Cc1nc(CN2CCN(c3ccc4c(c3)C(=O)N(C3CCC(=O)NC3=O)C4)CC2)cnc1O[C@H]1CN2c3cc(-c4cccc(F)c4O)nnc3NC[C@]2(C(F)F)C1` (stereo partly drawn) [Example 40, 3-(6-(4-((5-(((6aS,8R)-6a-(difluoromethyl)-2-(3-fluoro-2-hydroxyphenyl)-5,6,6a,7,8,9-hexahydropyrrolo[1′,2′:4,5]pyrazino[2,3-c]pyridazin-8-yl)oxy)-6-methylpyrazin-2-yl)methyl)piperazin-1-yl)-1-oxoisoindolin-2-yl)piperidine-2,6-dione], for which the DC50 is < 100 nM at SMARCA2 and 100 to 1000 nM on SMARCA4. In addition, the figures for the Dmax on SMARCA2 and at SMARCA4 were > 75% and < 50%, respectively.

Turning to `Cc1nc(O[C@H]2CN3c4cc(-c5cccc(F)c5O)nnc4NC[C@]3(C(F)F)C2)nc(C)c1CN1CCN(c2ccc3c(c2)C(=O)N(C2CCC(=O)NC2=O)C3)CC1` (stereo partly drawn) [Example 41, 3-(6-(4-((2-(((6aS,8R)-6a-(Difluoromethyl)-2-(3-fluoro-2-hydroxy-phenyl)-5,6,6a,7,8,9-hexahydropyrrolo [1′,2′:4,5]pyrazino[2,3-c]pyridazin-8-yl)oxy)-4,6-dimethylpyrimidin-5-yl)methyl)piperazin-1-yl)-1-oxoisoindolin-2-yl)piperidine-2,6-dione], the DC50 at SMARCA2 was < 100 nM; at SMARCA4, 100 to 1000 nM. For the same compound, the Dmax on SMARCA2 is > 75%; at SMARCA4, < 50%.

In the case of `O=C1CCC(N2Cc3ccc(N4CCN(Cc5cnc(O[C@H]6CN7c8cc(-c9cccc(F)c9O)nnc8NC[C@]7(C(F)F)C6)nc5)CC4)cc3C2=O)C(=O)N1` (stereo partly drawn) [Example 42, 3-(6-(4-((2-(((6aS,8R)-6a-(difluoromethyl)-2-(3-fluoro-2-hydroxyphenyl)-5,6,6a,7,8,9-hexahydropyrrolo [1%2′:4,5]pyrazino[2,3-c]pyridazin-8-yl)oxy)pyrimidin-5-yl)methyl)piperazin-1-yl)-1-oxoisoindolin-2-yl)piperidine-2,6-dione], on SMARCA2, the DC50 is < 100 nM and the Dmax was > 75%. Also, at SMARCA4, the DC50 is > 1000 nM and the Dmax was < 50%.

On to `O=C1CC[C@H](N2Cc3ccc(N4CCN(Cc5ccc(O[C@H]6CN7c8cc(-c9cccc(F)c9O)nnc8NC[C@@]7(C(F)F)C6)nc5)CC4)cc3C2=O)C(=O)N1` [Example 43, (S)-3-(6-(4-((6-(((6aR,8R)-6a-(difluoromethyl)-2-(3-fluoro-2-hydroxyphenyl)-5,6,6a,7,8,9-hexahydropyrrolo[1′,2′:4,5]pyrazino[2,3-c]pyridazin-8-yl)oxy)pyridin-3-yl)methyl)piperazin-1-yl)-1-oxoisoindolin-2-yl)piperidine-2,6-dione], for which, on SMARCA2, the DC50 was < 100 nM and the Dmax is > 75%. In addition, at SMARCA4, the DC50 is > 1000 nM and the Dmax is < 50%.

For `CCc1cc(CN2CCN(c3ccc4c(c3)C(=O)N([C@H]3CCC(=O)NC3=O)C4)CC2)cnc1O[C@H]1CN2c3cc(-c4cccc(F)c4O)nnc3NC[C@@]2(C(F)F)C1` [Example 44, (S)-3-(6-(4-((6-(((6aR,8R)-6a-(difluoromethyl)-2-(3-fluoro-2-hydroxyphenyl)-5,6,6a,7,8,9-hexahydropyrrolo[1′,2′:4,5]pyrazino[2,3-c]pyridazin-8-yl)oxy)-5-ethylpyridin-3-yl)methyl)piperazin-1-yl)-1-oxoisoindolin-2-yl)piperidine-2,6-dione], the DC50 was < 100 nM at SMARCA2 and 100 to 1000 nM on SMARCA4. Further, the Dmax on SMARCA2 is > 75%.

Take `Cc1c(O[C@H]2CN3c4cc(-c5cccc(F)c5O)nnc4NC[C@@]3(C(F)F)C2)cnc(CN2CCN(c3ccc4c(c3)C(=O)N([C@H]3CCC(=O)NC3=O)C4)CC2)c1F` [Example 45, (S)-3-(6-(4-((5-(((6aR,8R)-6a-(difluoromethyl)-2-(3-fluoro-2-hydroxyphenyl)-5,6,6a,7,8,9-hexahydropyrrolo[1′,2′:4,5]pyrazino[2,3-c]pyridazin-8-yl)oxy)-3-fluoro-4-methylpyridin-2-yl)methyl)piperazin-t-yl)-1-oxoisoindolin-2-yl)piperidine-2,6-dione]: on SMARCA2, the DC50 was < 100 nM and the Dmax is 50 to 75%. For the same compound, on SMARCA4, the DC50 is > 1000 nM and the Dmax was < 50%.

With `Cc1c(O[C@H]2CN3c4cc(-c5cccc(F)c5O)nnc4NC[C@]3(C(F)F)C2)cnc(CN2CCN(c3ccc4c(c3)C(=O)N([C@H]3CCC(=O)NC3=O)C4)CC2)c1C` [Example 46, (S)-3-(6-(4-((5-(((6aS,8R)-6a-(difluoromethyl)-2-(3-fluoro-2-hydroxyphenyl)-5,6,6a,7,8,9-hexahydropyrrolo [1′,2′:4,5]pyrazino[2,3-c]pyridazin-8-yl)oxy)-3,4-dimethylpyridin-2-yl)methyl)piperazin-1-yl)-1-oxoisoindolin-2-yl)piperidine-2,6-dione], the DC50 at SMARCA2 and at SMARCA4 was < 100 nM throughout. The Dmax at SMARCA2 and at SMARCA4 was > 75% throughout.

Regarding `CCc1cc(CN2CCN(c3ccc4c(c3)C(=O)N([C@H]3CCC(=O)NC3=O)C4)CC2)cnc1O[C@H]1CN2c3cc(-c4cccc(F)c4O)nnc3NC[C@]2(C(F)F)C1` [Example 47, (S)-3-(6-(4-((6-(((6aS,8R)-6a-(difluoromethyl)-2-(3-fluoro-2-hydroxyphenyl)-5,6,6a,7,8,9-hexahydropyrrolo [1′,2′:4,5]pyrazino[2,3-c]pyridazin-8-yl)oxy)-5-ethylpyridin-3-yl)methyl)piperazin-1-yl)-1-oxoisoindolin-2-yl)piperidine-2,6-dione], on SMARCA2, the DC50 was < 100 nM and the Dmax is > 75%. Further, on SMARCA4, the DC50 is < 100 nM and the Dmax was > 75%.
